Test results published in patent US5614504A, “Method of making inosine monophosphate derivatives and immunopotentiating uses thereof” (The University of South Florida, priority 1995, dated 1997).

Tests used:
CD4+ lymphocytes = test: PHA response of CD4+ enriched human lymphocytes; type: cell-based; conditions: MIMP 1-200 μg/ml, 3 donors, p <0.01
Description: Human CD4+ and CD8+ lymphocyte subsets were obtained from normal controls using commercial panning techniques (Applied Immune Sciences, Santa Clara, Calif.).
Human peripheral blood lymphocytes are on average approximately 80% T lymphocytes and 20% B lymphocytes and of the T lymphocytes, 2/3 are of the CD4+ helper/inducer phenotype and 1/3 are the CD8+ suppressor/cytotoxic phenotype. Enrichment of CD4+ T cells or CD8+ T cells can be achieved through reduction of the other phenotype (>98%) removal using adherence to monoclonal antibody-coated flasks (panning).

[1] = system: human peripheral blood lymphocytes (HPBL); test: PHA responses of HPBL from aged and HIV-infected individuals; type: cell-based; conditions: 100 μg/ml
Method: The human donors included 22 healthy controls (ages ranging from 20-50), 24 aged individuals (mean age 84 years, ±1), 8 HIV-infected pre-AIDS patients (CDC Class II-mean CD4 count 544), and 8 AIDS patients (mean CD4 count 40).
FIG. 7 depicts the PHA responses of these aged and HIV-infected individuals and the effect of stimulation with 100 μg/ml of MIMP compared to normal controls (C).

[2] = system: mouse spleen lymphocytes (MSL); test: Mouse spleen lymphocyte proliferation to Con A; type: cell-based
Method: In vitro: Both human peripheral blood lymphocytes (HPBL) and mouse spleen lymphocytes (MSL) were employed. […] For HPBL transformation, PHA and PWM were used at 0.5 μg/ml. For MSL transformation, Con A was used at 0.5 μg/ml, phytohemagglutinin (PHA, Murex Diagnostics, Atlanta, Ga.) at 0.5 μg/ml and lipopolysaccharide endotoxin (LPS, Sigma, St. Louis, Mo.) at 10 μg/ml.
(§1) They were cultured in microwell plates at 1.5×10^6 cells/ml of minimal essential media (MEM, Gibco Labs, Grand Island, N.Y.) with 5% fetal calf serum (FCS, Hyclone Labs, Logan, Utah) and tested for their proliferative response to mitogens as measured by incorporation of (^3 H) tritiated thymidine (New England Nuclear, Wilmington Del., […]; 2.5 μCi/ml) during a terminal pulse followed by liquid scintillation spectrometry.

murine splenocytes = test: Murine splenocyte proliferation with PHA or LPS; type: cell-based, BALB/c mice; conditions: for tritiated thymidine incorporation, LPS 10 μg/ml / tritiated thymidine incorporation, PHA 0.5 μg/ml: mean CPM±SEM
Method: In vitro: Both human peripheral blood lymphocytes (HPBL) and mouse spleen lymphocytes (MSL) were employed. Proliferation was assayed by tritiated thymidine incorporation, as described in Hadden et al. (1975) and Hadden et al. (1986). For HPBL transformation, PHA and PWM were used at 0.5 μg/ml. For MSL transformation, Con A was used at 0.5 μg/ml, phytohemagglutinin (PHA, Murex Diagnostics, Atlanta, Ga.) at 0.5 μg/ml and lipopolysaccharide endotoxin (LPS, Sigma, St. Louis, Mo.) at 10 μg/ml. When protected-IMP derivatives were added, they were added at the onset of culture at varying concentrations ranging from 0.1 μg/ml to 100 μg/ml.
as §1, with “Murine splenocytes were obtained from BALB/c mice, 4-12 months old, by standard procedures (Hadden et al., 1975). They” for “They”, “spectrometry. Human cells were seeded at […] and cultured for 48 hours with an 18 hour pulse with ^3 H-thymidine.” for “spectrometry.”
In a further experiment, murine splenocytes were incubated with PHA or LPS and MIMP (1-100 μg/ml). […] Splenocyte responses to PHA preferentially reflect T lymphocyte responses, confirming the responses seen with ConA. The LPS responses also parallel the previous experiment.
The data was obtained from four different animals and represent quadruplicate samples for each concentration. They are expressed as mean CPM±SEM, with * showing a significance of p<0.05 and ** showing p<0.01.

[3] = system: Friend Leukemia Virus (FLV); test: Survival of mice infected with Friend Leukemia Virus; type: in vivo, BALB/c mice; conditions: 1 mg/kg/day i.p. day 3 to day 13; P<0.004 Wilcoxon
Method: Control mice were treated with saline intraperitoneally from day 3 to day 13 following infection, and Me-IMP treated mice were treated with 1 mg/kg/day from day 3 to day 13, and the day of death was recorded.

COP(=O)(O)OC[C@H]1O[C@@H](n2cnc3c(=O)[nH]cnc32)[C@H](O)[C@@H]1O [Me-IMP, Methyl-5'-inosine-monophosphate]
PHA response of CD4+ lymphocytes (CD4+ lymphocytes): significantly augmented | response of lymphocytes to MIMP in presence of PHA ([1]; 8 AIDS patients): no response | response of lymphocytes to MIMP in presence of PHA ([1]; 8 HIV-infected (ARC) individuals): significant response | response of lymphocytes to MIMP in presence of PHA ([1]; 9 aged patients (Ag-)): markedly depressed responses to PHA and also to MIMP | response of lymphocytes to MIMP in presence of PHA ([1]; 15 aged patients (Ag+)): normal PHA responses and responses to MIMP | response of lymphocytes to MIMP in presence of PHA ([1]; 22 controls): normal PHA and MIMP responses | relative potency, in vitro mouse lymphocyte proliferation [2]: most potent | proliferative responses of MSL to Con A ([2]; 0.1, 1, 10, 100 μg/ml, Con A 0.5 μg/ml): stimulated the proliferative responses | tritiated thymidine incorporation, LPS 10 μg/ml (murine splenocytes; MIMP 1 μg/ml): 47261 ± 997 CPM | tritiated thymidine incorporation, PHA 0.5 μg/ml (murine splenocytes; MIMP 1 μg/ml): 106647 ± 4917 CPM | tritiated thymidine incorporation, LPS 10 μg/ml (murine splenocytes; MIMP 10 μg/ml, p<0.05): 57481 ± 2343 CPM | tritiated thymidine incorporation, PHA 0.5 μg/ml (murine splenocytes; MIMP 10 μg/ml, p<0.05): 117247 ± 6500 CPM | tritiated thymidine incorporation, PHA 0.5 μg/ml (murine splenocytes; MIMP 100 μg/ml, p<0.01): 124801 ± 6630 CPM | tritiated thymidine incorporation, LPS 10 μg/ml (murine splenocytes; MIMP 100 μg/ml, p<0.05): 55153 ± 6176 CPM | splenocyte responses in the absence of mitogens (murine splenocytes; MIMP 1-100 μg/ml): did not affect | proliferative responses in the presence of mitogens (murine splenocytes; MIMP 1-100 μg/ml, PHA or LPS): progressively and significantly augumented | mean survival time (MST) [3]: larger mean survival time
